Data as given in patent publication US12102667B2, “Polypeptides and antibiotics against gram-negative bacterium comprising the same” (priority 2021, dated 2024).
Read-outs that look alike come from different tables or passages of the source.

B1: mtEC340: mutant EC340 with H39S, D43H, T45E, A73V, A81S, T101A and I113V (protein)
chain: VSRNISNNGIKFTAAFEGFRGTAYRATPNEKYLTIGYGSYGPHVEPGKTITPGQGLLLLNRDMAKAVAAVDAVAHHSLTQSQFDAVCDLVYNAGAGVIAAATGTGKALRSGDVATLRAKLALFINQNGKPLLGLRRRTAGRLALFDGKPWQEAEAIGRAVKG
modifications: synthetic_mtEC340
notes: mutant EC340 with H39S, D43H, T45E, A73V, A81S, T101A and I113V

What was measured:
E. coli [1] = assay: Checkerboard assay (MIC in combination, FIC index); type: cell-based, Escherichia coli; conditions: for MIC of endolysin combined with colistin: mtEC340: E. coli ATCC8738
Method: LNT113 was vertically diluted 2-fold and the antibiotic was serially diluted horizontally in a 96-well plate. Bacterium at a concentration of 10^6 CFU/ml were added to each well in a CAA medium. […] The fractional inhibitory concentration (FIC) for the LNT113 or antibiotic was calculated by dividing the MIC of two drugs by combining it with the MIC of each drug alone. […] The FICI was considered as a synergistic effect ≤0.5, an additive >0.5 ˜≤1, an independent effect (indifference)>1.0 ˜≤2, and an antagonistic effect (antagonism) >2.

E. coli [2] = conditions: cited from earlier work
E. coli [3] = assay: Antibacterial activity analysis (colony count after 2 hours in buffer); type: cell-based, Escherichia coli; conditions: 2 μM
Method: (§1) The antibacterial activity of the purified protein was tested for E. coli and various K. pneumoniae strains. The bacterium were grown to an exponential phase (OD600=0.5) and harvested by centrifugation at 12,000×g for 3 minutes. Then, the pellets were washed with reaction buffer solution (20 mM Tris-HCl, pH 7.5) and diluted to about 10^6 cells/ml in the buffer solution. Then, 100 μl bacterial suspension was mixed with the purified endolysin of 100 μl in the reaction buffer solution and incubated at 37° C. for 2 hours. Finally, the mixture was diluted with PBS and loaded on an LB plate. After culturing at 37° C. overnight, the bacterial colonies were counted. All the analysis was performed in triplicate.
(§2) The same reaction was performed for the selected subject bacterium in 20 mM HEPES-NaOH, 150 mM NaCl [pH 7.4], and the unique antibacterial activity of Tris and dependence of endolysin for turgor pressure were excluded (FIG. 10a and FIG. 10b). […] The bacterial cells grown geometrically were cultured with 2 μM endolysin in low tonicity buffers (20 mM Tris-HCl, pH 7.5 or 20 mM HEPES, pH 7.5) or high tonicity buffers (buffer solution comprising 150 mM NaCl) at 37° C. for 2 hours. The cells treated with storage buffer solution (20 mM Tris-HCl, pH 7.5, 150 mM NaCl buffer solution (pH 7.5)) were used as a negative control group. The dotted line represents the detection limit (1 Log CFU/ml).
For this, endolysin EC340 at a concentration of 2 μM and each test bacterium were added to reaction buffer (20 mM Tris-Cl, pH 7.5) so that the final concentration was to be 200 μl, and were left at 37° C. for 2 hours. After 2 hours, the number of colonies of Acinetobacter baumannii, Pseudomonas aeruginosa and Escherichia coli was confirmed, and the result was shown in FIG. 3.

K. pneumoniae = assay: as above; type: cell-based, Klebsiella pneumoniae; conditions: 2 μM
Method: as §1, §2

[4] = antibiotic combined with LNT113, E. coli ATCC 8739
[5] = antibiotic combined with LNT113, E. coli ATCC 51739
[6] = antibiotic combined with LNT113, E. coli CCARM 1A746
[7] = antibiotic combined with LNT113, E. coli FORC81
[8] = antibiotic combined with LNT113, E. coli UPEC 3150

| Molecule | Fractional inhibitory concentration index (FICI) of LNT113 using various antibiotics (E. coli [1]; [4]) | Fractional inhibitory concentration index (FICI) of LNT113 using various antibiotics (E. coli [1]; [5]) | Fractional inhibitory concentration index (FICI) of LNT113 using various antibiotics (E. coli [1]; [6]) | Fractional inhibitory concentration index (FICI) of LNT113 using various antibiotics (E. coli [1]; [7]) | Fractional inhibitory concentration index (FICI) of LNT113 using various antibiotics (E. coli [1]; [8]) | MIC of antibiotics (E. coli [2]; E. coli CCARM 1A746) [µg/mL] | MIC of antibiotics (E. coli [2]; E. coli CCARM 1B684) [µg/mL] | other results |
| --- | --- | --- | --- | --- | --- | --- | --- | --- |
| CC[C@H]1OC(=O)[C@H](C)[C@@H](O[C@H]2C[C@@](C)(OC)[C@@H](O)[C@H](C)O2)[C@H](C)[C@@H](O[C@@H]2O[C@H](C)C[C@H](N(C)C)[C@H]2O)[C@](C)(O)C[C@@H](C)CN(C)[C@H](C)[C@@H](O)[C@]1(C)O [Azithromycin] | 1 | 0.75 | 1 | 2 | 0.75 | – | – | – |
| CN(C)c1cc(NC(=O)CNC(C)(C)C)c(O)c2c1C[C@H]1C[C@H]3[C@H](N(C)C)C(O)=C(C(N)=O)C(=O)[C@@]3(O)C(O)=C1C2=O [Tigecycline] | 2 | 0.63 | 2 | 2 | 0.63 | – | – | – |
| C[C@@H](O)[C@H]1C(=O)N2C(C(=O)O)=C(S[C@@H]3CN[C@H](C(=O)N(C)C)C3)[C@H](C)[C@H]12 [Meropenem] | 0.63 | 0.75 | 1 | 2 | 1 | – | – | combination effect with LNT113, in words (E. coli [1]; antibiotic combined with LNT113, E. coli strains overall): slight additive effect |
| [H]/N=C(/N)N[C@H]1[C@H](O)[C@@H](O)[C@H](O[C@@H]2O[C@@H](C)[C@](O)(C=O)[C@H]2O[C@@H]2O[C@@H](CO)[C@H](O)[C@@H](O)[C@@H]2NC)[C@@H](N/C(N)=N\[H])[C@@H]1O [Streptomycin] | – | – | – | – | – | ≥128 | ≥128 | – |
| CCn1cc(C(=O)O)c(=O)c2cc(F)c(N3CCNCC3)cc21 [Norfloxacin] | – | – | – | – | – | ≥128 | 32 | – |
| B1 | – | – | – | – | – | – | – | MIC of endolysin combined with colistin: mtEC340 (E. coli [1]; Colistin 0): >128 µg/mL; MIC of endolysin combined with colistin: mtEC340 (E. coli [1]; Colistin 0.125 (row with mtEC340 16)): 16 µg/mL; MIC of endolysin combined with colistin: mtEC340 (E. coli [1]; Colistin 0.125 (row with mtEC340 32)): 32 µg/mL; MIC of endolysin combined with colistin: mtEC340 (E. coli [1]; Colistin 0.25): <2 µg/mL; antibacterial activity (number of bacterium) (E. coli [3]; E. coli ATCC8739, ATCC25922, CCARM1A746, CCARM1B684, 2 hours, Tris-HCl pH 7.5): more excellent antibacterial activity; effect of adding NaCl on antibacterial activity (E. coli [3]; E. coli ATCC 8739, Tris or Hepes buffer with 150 mM NaCl): almost inactivated; increase of antibacterial activity versus EC340 (E. coli [3]; various E. coli strains, 2 hours): up to 1 log; antibacterial activity (number of bacterium) (K. pneumoniae; K. pneumoniae ATCC700603, KCTC2208, CCARM10143, F85, 2 hours, Tris-HCl pH 7.5): more excellent antibacterial activity; effect of adding NaCl on antibacterial activity (K. pneumoniae; K. pneumoniae KCTC 2208, Tris or Hepes buffer with 150 mM NaCl): almost inactivated; increase of antibacterial activity versus EC340 (K. pneumoniae; various K. pneumoniae strains, 2 hours): up to 1 log |
